Measurements taken from US10173968B2, “Bishydrazone-based antifungal agents” (University of Kentucky Research Foundation, priority 2016, dated 2019).
Read-outs that look alike come from different tables or passages of the source.

Assays:
[1] = tested on: C. albicans ATCC 64124; assay: Antifungal MIC, CLSI M27-A3 microbroth dilution; format: cell-based, Candida albicans; conditions: C. albicans ATCC 64124, resistant to FLC, ITC, and VOR
Experimental: (§1) In vitro MIC testing was performed according to the CLSI M27-A3 standard microbroth dilution methodology for the susceptibility testing of yeasts with minor modifications.

[2] = tested on: C. albicans ATCC 1003; assay: Antifungal MIC, CLSI M27-A3 microbroth dilution; format: cell-based, Candida albicans
Experimental: as §1

[3] = tested on: C. albicans ATCC 10231; assay: Antifungal MIC, CLSI M27-A3 microbroth dilution; format: cell-based, Candida albicans; conditions: C. albicans ATCC 10231, resistant to FLC, ITC, and VOR
Experimental: as §1

[4] = tested on: C. albicans ATCC 2310; assay: Antifungal MIC, CLSI M27-A3 microbroth dilution; format: cell-based, Candida albicans; conditions: C. albicans ATCC 2310, susceptible to FLC, ITC, and VOR
Experimental: as §1

[5] = tested on: C. albicans ATCC 1237; assay: Antifungal MIC, CLSI M27-A3 microbroth dilution; format: cell-based, Candida albicans; conditions: ITC, and VOR
Experimental: as §1

[6] = tested on: C. albicans ATCC 2876; assay: Antifungal MIC, CLSI M27-A3 microbroth dilution; format: cell-based, Candida albicans; conditions: C. albicans ATCC 2876, susceptible to FLC, ITC, and VOR
Experimental: as §1

[7] = tested on: C. albicans ATCC 90819; assay: Antifungal MIC, CLSI M27-A3 microbroth dilution; format: cell-based, Candida albicans; conditions: C. albicans ATCC 90819, resistant to FLC, ITC, and VOR
Experimental: as §1

[8] = tested on: M. smegmatis MC2-155; assay: Antibacterial MIC, double-dilution method; format: cell-based; conditions: Mycolicibacterium smegmatis, MC2155, strain K, mycobacterial, read-out: MIC
Experimental: (§2) MIC values were determined against a variety of Gram-positive (strains A-D) and Gram-negative (E-J) bacterial and mycobacterial (K) strains using the double-dilution method, as previously published. Preliminary screening was performed using 500 μM of each compound.

[9] = tested on: E. cloacae ATCC 13047; assay: Antibacterial MIC, double-dilution method; format: cell-based; conditions: Enterobacter cloacae, ATCC13047
Experimental: as §2

[10] = tested on: K. pneumoniae ATCC 27736; assay: Antibacterial MIC, double-dilution method; format: cell-based; conditions: Klebsiella pneumoniae, ATCC27736
Experimental: as §2

[11] = tested on: E. coli MC1061; assay: Antibacterial MIC, double-dilution method; format: cell-based; conditions: Escherichia coli, strain G, Gram-negative, read-out: MIC
Experimental: as §2

[12] = tested on: P. aeruginosa ATCC 27853; assay: Antibacterial MIC, double-dilution method; format: cell-based; conditions: Pseudomonas aeruginosa, ATCC27853
Experimental: as §2

[13] = tested on: S. enterica ATCC 14028; assay: Antibacterial MIC, double-dilution method; format: cell-based; conditions: Salmonella enterica, ATCC14028
Experimental: as §2

[14] = tested on: A. baumannii ATCC 19606; assay: Antibacterial MIC, double-dilution method; format: cell-based; conditions: Acinetobacter baumannii, ATCC19606
Experimental: as §2

[15] = tested on: MRSA; assay: Antibacterial MIC, double-dilution method; format: cell-based; conditions: Staphylococcus aureus, strain C, Gram-positive, read-out: MIC
Experimental: as §2

[16] = tested on: VRE; assay: Antibacterial MIC, double-dilution method; format: cell-based; conditions: Enterococcus, strain D, Gram-positive, read-out: MIC
Experimental: as §2

[17] = tested on: B. subtilis 168; assay: Antibacterial MIC, double-dilution method; format: cell-based; conditions: Bacillus subtilis, strain A, Gram-positive
Experimental: as §2

[18] = tested on: L. monocytogenes ATCC 19115; assay: Antibacterial MIC, double-dilution method; format: cell-based; conditions: Listeria monocytogenes, ATCC19115, strain B, Gram-positive, read-out: MIC
Experimental: as §2

[19] = Candida albicans, ATCC64124, converted from μg/mL, read-out: MIC
[20] = Candida albicans, ATCC64124, read-out: MIC
[21] = Candida albicans, ATCC1003, C. albicans ATCC 1003, converted from μg/mL, read-out: MIC
[22] = Candida albicans, ATCC1003, read-out: MIC
[23] = Candida albicans, ATCC10231, converted from μg/mL, read-out: MIC
[24] = Candida albicans, ATCC10231, read-out: MIC
[25] = Candida albicans, ATCC2310, converted from μg/mL, read-out: MIC
[26] = Candida albicans, ATCC2310, read-out: MIC
[27] = Candida albicans, ATCC1237, C. albicans ATCC 1237, resistant to FLC, converted from μg/mL, read-out: MIC
[28] = Candida albicans, ATCC1237, C. albicans ATCC 1237, resistant to FLC, read-out: MIC
[29] = Candida albicans, ATCC2876, converted from μg/mL, read-out: MIC
[30] = Candida albicans, ATCC2876, read-out: MIC
[31] = Candida albicans, ATCC90819, converted from μg/mL, read-out: MIC
[32] = Candida albicans, ATCC90819, read-out: MIC
[33] = strain F, Gram-negative, range 0.5 to 500 μM, read-out: MIC
[34] = strain H, Gram-negative, range 0.5 to 500 μM, read-out: MIC
[35] = strain I, Gram-negative, range 0.5 to 500 μM, read-out: MIC
[36] = strain E, Gram-negative, range 0.5 to 500 μM, read-out: MIC

| Compound | MIC [1, 19] [µM] | MIC [1, 20] [µg/mL] | MIC [2, 21] [µM] | MIC [2, 22] [µg/mL] | MIC [3, 23] [µM] | MIC [3, 24] [µg/mL] | MIC [4, 25] [µM] | MIC [4, 26] [µg/mL] | MIC [5, 27] [µM] | MIC [5, 28] [µg/mL] | MIC [6, 29] [µM] | MIC [6, 30] [µg/mL] | MIC [7, 31] [µM] | MIC [7, 32] [µg/mL] | MIC ([8]; converted from μM) [µg/mL] | MIC ([8]; range 0.5 to 500 μM) [µM] | MIC [9, 33] [µM] | MIC [10, 34] [µM] | MIC ([11]; converted from μM) [µg/mL] | MIC ([11]; range 0.5 to 500 μM) [µM] | also measured |
| --- | --- | --- | --- | --- | --- | --- | --- | --- | --- | --- | --- | --- | --- | --- | --- | --- | --- | --- | --- | --- | --- |
| Cl.Cl.N=C(N)N/N=C/c1ccc(-c2ccc(/C=N/NC(=N)N)cc2)cc1 [Compound 3A, (2E,2′E)-2,2′-([1,1′-Biphenyl]-4,4′-diylbis(methanylylidene))bis(hydrazine-1-carboximidamide) dihydrochloride] | > 79.2 | > 31.3 | 19.7 | 7.8 | 39.5 | 15.6 | > 79.2 | > 31.3 | 39.5 | 15.6 | 19.7 | 7.8 | > 79.2 | > 31.3 | > 198 | > 500 | > 500 | > 500 | > 198 | > 500 | MIC [9]: > 198 µg/mL; MIC [10]: > 198 µg/mL; MIC [12]: > 198 µg/mL; MIC [12, 35]: > 500 µM; MIC [13]: > 198 µg/mL; MIC ([13]; strain J, Gram-negative, range 0.5 to 500 μM, read-out: MIC): > 500 µM; MIC [14]: > 198 µg/mL; MIC [14, 36]: > 500 µM; MIC ([15]; converted from μM): 1.5 µg/mL; MIC ([15]; range 0.5 to 500 μM): 3.9 µM; MIC ([16]; converted from μM): 0.8 µg/mL; MIC ([16]; range 0.5 to 500 μM): 2 µM; MIC ([17]; converted from μM): > 198 µg/mL; MIC ([17]; range 0.5 to 500 μM): > 500 µM; MIC ([18]; converted from μM): 0.4 µg/mL; MIC ([18]; range 0.5 to 500 μM): 1 µM |
| C/C(=N\NC(=N)N)c1ccc(Oc2ccc(/C(C)=N/NC(=N)N)cc2)cc1.Cl.Cl [Compound 4E, (2E,2′E)-2,2′-((Oxybis(4,1-phenylene))bis(ethan-1-yl-1-ylidene))bis(hydrazine-1 carboximidamide), dihydrochloride] | 17.8 | 7.8 | 17.8 | 7.8 | 17.8 | 7.8 | 17.8 | 7.8 | 17.8 | 7.8 | 8.9 | 3.9 | 17.8 | 7.8 | 54.9 to 110 | 125 to 250 | 250 | 62.5 | 54.9 | 125 | MIC ([9]; strain F, Gram-negative, converted from μM, read-out: MIC): 110 µg/mL; MIC ([10]; strain H, Gram-negative, converted from μM, read-out: MIC): 27.5 µg/mL; MIC ([12]; strain I, Gram-negative, converted from μM, read-out: MIC): 27.5 µg/mL; MIC [12, 35]: 62.5 µM; MIC ([14]; strain E, Gram-negative, converted from μM, read-out: MIC): 27.5 µg/mL; MIC [14, 36]: 62.5 µM; MIC ([16]; converted from μM): 1.7 µg/mL; MIC ([16]; range 0.5 to 500 μM): 3.9 µM; MIC ([18]; converted from μM): 27.5 µg/mL; MIC ([18]; range 0.5 to 500 μM): 62.5 µM |
| C[C@@H]1[C@H](O)[C@@H](C)/C=C/C=C/C=C/C=C/C=C/C=C/C=C/[C@H](O[C@@H]2O[C@H](C)[C@@H](O)[C@H](N)[C@@H]2O)C[C@@H]2O[C@](O)(C[C@@H](O)C[C@@H](O)[C@H](O)CC[C@@H](O)C[C@@H](O)CC(=O)O[C@H]1C)C[C@H](O)[C@H]2C(=O)O [AmB, amphotericin B, reference compound] | – | – | – | – | – | – | – | – | – | – | – | – | – | – | – | – | – | – | – | – | MIC [1]: 2.0 to 3.9 µg/mL; MIC ([1]; converted from μg/mL): (2.1-4.2) μM; MIC ([2]; C. albicans ATCC 1003, converted from μg/mL): (4.2) μM; MIC ([2]; C. albicans ATCC 1003, range 0.5 to […]): 3.9 µg/mL; MIC [3]: 3.9 µg/mL; MIC ([3]; converted from μg/mL): (4.2) μM; MIC [4]: 3.9 µg/mL; MIC ([4]; converted from μg/mL): (4.2) μM; MIC ([5]; C. albicans ATCC 1237, resistant to FLC): 3.9 µg/mL; MIC ([5]; C. albicans ATCC 1237, resistant to FLC, converted from μg/mL): (4.2) μM; MIC [6]: 3.9 µg/mL; MIC ([6]; converted from μg/mL): (4.2) μM; MIC [7]: 2.0 µg/mL; MIC ([7]; converted from μg/mL): (2.1) μM |
